In assay [1] the target is fusion protein from the PR-ligand-binding domain and a Gal4-transactivation domain (Homo sapiens, UniProt P06401). Description: Progestational action by transactivation test (CHO K1 reporter cells). The class given is cell-based. The conditions noted are these: CHO K1 luciferase reporter, 16 hours incubation; for EC50: read-out: Progesterone receptor Agonism EC50; for Emax: read-out: Progesterone receptor Agonism efficacy. How it is done: 4. Determination of Progestational Action by Means of Transactivation Tests:
The test compounds were added eight hours later, and the cells were incubated with the compounds for 16 hours. The tests were carried out in triplicate. At the end of incubation the medium containing the effector was removed and replaced with lysis buffer. After luciferase assay substrate (Promega, #E1501) had been added, the 96-well plates were then put in a microplate luminometer (Pherastar, BMG Labtech), and the luminescence was measured. The IC50 values were evaluated using software for calculating dose-effect relations.
(A reporter such as luciferase makes a cellular process visible.)

The target of assay [2] is T1, mineralocorticoid receptor (Homo sapiens (Human), UniProt P08235). In words: Mineralocorticoid receptor binding test. The following applies: reference 3H-aldosterone, Hi5 cytosol. The text has this: 2. Mineralocorticoid Receptor Binding Test:
Assay [3] has as its target T2, androgen receptor (Homo sapiens (Human), UniProt P10275). Description: Androgen receptor binding test. The conditions noted are these: reference 3H-testosterone, Hi5 cytosol; for IC50: read-out: Androgen receptor IC50.
Description: Androgen Receptor Binding Test:
The test was carried out as in 1., with the following modifications: cytosol from androgen receptor-expressing insect cells (Hi5) was used, and the reference substance was ^3H-testosterone.
For another assay, the target named is progesterone receptor (Homo sapiens (Human), UniProt P06401). In words: Progesterone receptor binding test. The following applies: for Progesterone receptor (PR) Competition factor: CF 1 = affinity of progesterone, CF > 1 lower affinity; for IC50: displacement of 3H-progesterone, cytosol from PR-expressing Hi5 insect cells; for CF PR/CF MR: ratio of competition factors CF(PR) and CF(MR). As to the method: 1. Progesterone Receptor Binding Test:
Using cytosol from progesterone receptor-expressing insect cells (Hi5), competitive binding to the progesterone receptor was determined from the ability to displace ^3H-progesterone as reference substance from the receptor.
On the technique in general: Displacement assays read how much labelled ligand stays bound in the presence of the test substance.

For assay [4], the target named is T1, mineralocorticoid receptor. In words: Antimineralocorticoid action by transactivation test (MDCK reporter cells). The class given is cell-based. The conditions noted are these: MDCK reporter cells, 1 nM aldosterone; for IC50: read-out: Mineralocorticoid receptor Antagonism IC50; for Emax: read-out: Mineralocorticoid receptor Antagonism efficacy. As to the method: 5. Determination of Antimineralocorticoid Action by Means of Transactivation Tests:
The antimineralocorticoid activity of the test substances was determined as for the transactivation tests described above.
The following modifications were undertaken: In this case reporter cell lines were used (MDCK cells) that express the human mineralocorticoid receptor, and transiently contain a reporter construct that contains luciferase under the control of a steroid hormone-responsive promoter.

For assay [5], the target named is T2, androgen receptor. Description: Androgenic/antiandrogenic action by transactivation test (PC3 reporter cells). Format: cell-based. The conditions noted are these: for IC50: 0.05 nM R1881, read-out: Androgen receptor Antagonism IC50; for EC50: read-out: Androgen receptor Agonism EC50. How it is done: 6. Determination of Androgenic/Antiandrogenic Action by Means of Transactivation Tests:
The androgenic/antiandrogenic action of the test substances was determined as for the transactivation tests described above.
The following modifications were made: In this case reporter cell lines were used (PC3 cells) that express the androgen receptor, and a reporter construct that contains luciferase under the control of a steroid hormone-responsive promoter.
For determination of the antiandrogenic efficacy, 0.05 nM R1881 was added to the cells, in order to achieve almost maximum stimulation of the reporter gene.

Where [6] appears, read: 0.05 nM R1881, read-out: Androgen receptor Antagonism efficacy.
Setting [7] is: read-out: Androgen receptor Agonism efficacy.

Where two headings read alike, the source gives them in different places.

T2 sequence (P10275 whole entry, species assumed): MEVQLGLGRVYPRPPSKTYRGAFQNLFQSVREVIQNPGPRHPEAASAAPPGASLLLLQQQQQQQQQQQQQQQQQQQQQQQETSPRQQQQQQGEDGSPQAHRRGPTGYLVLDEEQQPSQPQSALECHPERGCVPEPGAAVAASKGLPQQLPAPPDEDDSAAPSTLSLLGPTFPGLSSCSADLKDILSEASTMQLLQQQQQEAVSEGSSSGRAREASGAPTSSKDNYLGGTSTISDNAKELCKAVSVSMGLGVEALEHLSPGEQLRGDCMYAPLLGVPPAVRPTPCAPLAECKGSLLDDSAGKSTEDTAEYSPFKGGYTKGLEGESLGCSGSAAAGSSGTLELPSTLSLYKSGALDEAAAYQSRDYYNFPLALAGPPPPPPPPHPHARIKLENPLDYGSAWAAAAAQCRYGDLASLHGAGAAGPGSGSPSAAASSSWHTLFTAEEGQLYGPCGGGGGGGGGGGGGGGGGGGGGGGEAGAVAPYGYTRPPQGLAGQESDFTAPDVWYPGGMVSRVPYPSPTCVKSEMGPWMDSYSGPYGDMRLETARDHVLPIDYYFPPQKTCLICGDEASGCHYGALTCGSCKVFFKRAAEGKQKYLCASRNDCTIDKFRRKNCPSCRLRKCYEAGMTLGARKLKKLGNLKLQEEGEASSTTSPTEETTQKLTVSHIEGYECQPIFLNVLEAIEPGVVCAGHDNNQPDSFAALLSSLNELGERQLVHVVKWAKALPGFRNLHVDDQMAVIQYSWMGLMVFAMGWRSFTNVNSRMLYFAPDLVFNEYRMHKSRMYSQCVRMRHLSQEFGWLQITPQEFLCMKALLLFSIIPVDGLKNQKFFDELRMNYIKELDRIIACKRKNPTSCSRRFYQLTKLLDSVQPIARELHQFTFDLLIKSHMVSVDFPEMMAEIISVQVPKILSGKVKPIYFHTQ
Chain of fusion protein from the PR-ligand-binding domain and a Gal4-transactivation domain (P06401 679-913): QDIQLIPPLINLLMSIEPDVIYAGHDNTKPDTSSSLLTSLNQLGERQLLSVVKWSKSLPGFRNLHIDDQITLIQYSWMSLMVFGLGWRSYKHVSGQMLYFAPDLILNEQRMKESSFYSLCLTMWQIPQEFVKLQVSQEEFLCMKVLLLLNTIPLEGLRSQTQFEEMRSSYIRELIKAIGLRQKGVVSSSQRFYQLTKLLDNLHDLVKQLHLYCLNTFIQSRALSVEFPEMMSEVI
T1 sequence (P08235 whole entry): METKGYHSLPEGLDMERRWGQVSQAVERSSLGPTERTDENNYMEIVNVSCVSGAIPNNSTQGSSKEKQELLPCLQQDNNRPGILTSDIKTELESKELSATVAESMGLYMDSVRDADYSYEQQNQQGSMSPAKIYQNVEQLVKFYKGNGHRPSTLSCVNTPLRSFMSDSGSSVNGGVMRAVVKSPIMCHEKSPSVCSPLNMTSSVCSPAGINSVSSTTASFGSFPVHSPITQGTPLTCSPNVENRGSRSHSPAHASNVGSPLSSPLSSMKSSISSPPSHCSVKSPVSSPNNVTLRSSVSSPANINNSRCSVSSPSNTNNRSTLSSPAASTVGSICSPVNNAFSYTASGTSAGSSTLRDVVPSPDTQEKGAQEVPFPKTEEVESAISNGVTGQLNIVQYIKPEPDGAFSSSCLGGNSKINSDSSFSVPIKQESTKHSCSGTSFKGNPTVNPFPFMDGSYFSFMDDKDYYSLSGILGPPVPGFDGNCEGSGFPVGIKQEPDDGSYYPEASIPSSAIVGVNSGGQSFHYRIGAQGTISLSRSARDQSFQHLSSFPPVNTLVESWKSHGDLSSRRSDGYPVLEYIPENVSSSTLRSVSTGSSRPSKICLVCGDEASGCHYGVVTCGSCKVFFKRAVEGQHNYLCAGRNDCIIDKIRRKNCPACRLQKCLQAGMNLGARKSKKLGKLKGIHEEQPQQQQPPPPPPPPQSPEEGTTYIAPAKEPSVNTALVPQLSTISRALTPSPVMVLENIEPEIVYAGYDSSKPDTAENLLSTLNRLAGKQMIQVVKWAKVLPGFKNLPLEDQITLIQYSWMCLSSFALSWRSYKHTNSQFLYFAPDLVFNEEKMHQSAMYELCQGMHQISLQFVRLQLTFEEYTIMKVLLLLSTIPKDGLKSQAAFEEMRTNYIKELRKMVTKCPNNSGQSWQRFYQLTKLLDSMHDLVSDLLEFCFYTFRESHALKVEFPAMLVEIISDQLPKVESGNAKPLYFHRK
Chain of progesterone receptor (P06401 whole entry, species assumed): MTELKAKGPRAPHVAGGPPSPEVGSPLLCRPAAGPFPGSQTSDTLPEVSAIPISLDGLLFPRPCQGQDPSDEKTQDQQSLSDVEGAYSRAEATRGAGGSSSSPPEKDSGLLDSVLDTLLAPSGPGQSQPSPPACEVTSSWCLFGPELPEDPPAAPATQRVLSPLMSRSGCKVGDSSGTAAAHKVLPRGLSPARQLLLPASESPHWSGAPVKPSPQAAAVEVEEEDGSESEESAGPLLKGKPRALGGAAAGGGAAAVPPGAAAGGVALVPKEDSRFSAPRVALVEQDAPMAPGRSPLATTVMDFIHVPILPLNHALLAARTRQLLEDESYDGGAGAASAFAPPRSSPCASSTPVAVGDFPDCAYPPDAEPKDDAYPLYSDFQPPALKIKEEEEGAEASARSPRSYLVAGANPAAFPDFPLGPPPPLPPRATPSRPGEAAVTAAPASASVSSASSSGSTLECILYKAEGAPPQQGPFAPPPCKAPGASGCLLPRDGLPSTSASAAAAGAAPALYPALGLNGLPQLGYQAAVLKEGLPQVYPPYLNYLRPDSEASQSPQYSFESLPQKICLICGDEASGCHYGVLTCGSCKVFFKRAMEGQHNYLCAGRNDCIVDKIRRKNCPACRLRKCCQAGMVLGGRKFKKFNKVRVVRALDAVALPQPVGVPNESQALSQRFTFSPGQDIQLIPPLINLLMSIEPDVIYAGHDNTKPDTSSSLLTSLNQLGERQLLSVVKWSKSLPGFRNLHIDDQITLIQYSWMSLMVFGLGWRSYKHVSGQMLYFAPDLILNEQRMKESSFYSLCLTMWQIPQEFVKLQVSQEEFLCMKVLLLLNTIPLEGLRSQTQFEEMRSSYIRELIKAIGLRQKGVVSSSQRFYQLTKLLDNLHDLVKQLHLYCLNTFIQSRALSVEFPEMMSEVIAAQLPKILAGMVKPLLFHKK

One may read the EC50 as the concentration needed to bring the measured effect to its halfway point. The term IC50 denotes the concentration that inhibits the measured activity by half. Take `CC[C@@H]1CC2=CC(=O)CC[C@@H]2[C@H]2CC[C@@]3(CC)[C@@H](CC[C@@]34C=CCO4)[C@H]12` [Example 10, 7α-Ethyl-18-methyl-17α-(1′-propenyl)-17β-3′-oxidoestra-4-en-3-one]: the EC50 in assay [1] was 0.78 µM; at androgen receptor [5], 0.0094 µM. Further, the Emax was 26.4% in assay [1], 39.2% in assay [4], 5% on androgen receptor [5] (setting [6]) and 70.4% on androgen receptor [5] (setting [7]). In addition, the “Mineralocorticoid receptor (MR) Competition factor” value in assay [2] is on record as 1.1. For the same compound, the IC50 on androgen receptor [3] was found to be 0.11 µM; at progesterone receptor it was 0.17 µM; in assay [4] it was 0.85 µM; on androgen receptor [5], 1 µM. In addition, the “Androgen receptor Competition factor” value at androgen receptor [3] was found to be 4.1. Moreover, the “Progesterone receptor (PR) Competition factor” value (shortened to “Progesterone receptor”) at progesterone receptor amounted to 7.03. The “CF PR/CF MR” value on progesterone receptor came out at 6.39.

Turning to `C=C[C@@H]1CC2=CC(=O)CC[C@@H]2[C@H]2CC[C@@]3(CC)[C@@H](CC[C@@]34C=CCO4)[C@@H]21` [Example 11, 7α-Vinyl-18-methyl-17α-(1′-propenyl)-17β-3′-oxidoestra-4-en-3-one], the figures for the EC50 (in assay [1]; on androgen receptor [5]) were 0.1 µM and 0.0053 µM, respectively. Moreover, the Emax in assay [1] was 29.5%; at androgen receptor [5] (setting [6]), 5%; on androgen receptor [5] (setting [7]), 88.8%. Also, in assay [2], the “Mineralocorticoid receptor (MR) Competition factor” value came to 1.3. Moreover, the figures for the half-inhibitory concentration (IC50) on androgen receptor [3], at progesterone receptor and at androgen receptor [5] were 1.3 µM, 0.17 µM and 1 µM, respectively. On androgen receptor [3], the “Androgen receptor Competition factor” value stood at 4.7. For the same compound, the “Progesterone receptor” value on progesterone receptor is on record as 6.24. The “CF PR/CF MR” value on progesterone receptor is recorded as 4.80. Further, in assay [4] (cell spans IC50 and efficacy), the “Mineralocorticoid receptor Antagonism (result in words)” value is “Partial agonist”.

Turning to `CC[C@]12CC[C@H]3[C@@H](C[C@@H](CO)C4=CC(=O)CC[C@@H]43)[C@@H]1CC[C@@]21C=CCO1` [Example 13, 6β-Hydroxymethylene-18-methyl-17α-(1′-propenyl)-17β-3′-oxidoestra-4-en-3-one], the EC50 (in assay [1]; on androgen receptor [5]) was 1 µM each time. For the same compound, the Emax in assay [1] came out at 5%; in assay [4], 98.8%; on androgen receptor [5] (setting [6]), 48.1%; at androgen receptor [5] (setting [7]), 5%. Besides, the “Mineralocorticoid receptor (MR) Competition factor” value in assay [2] came to 2.2. For the same compound, the IC50 turned out to be 1 µM at androgen receptor [3], 2.1 µM on progesterone receptor, 0.11 µM in assay [4] and 0.14 µM at androgen receptor [5]. In addition, the “Androgen receptor Competition factor” value on androgen receptor [3] was determined as 1000.0. In addition, the “Progesterone receptor” value on progesterone receptor came out at 88.59. Further, the “CF PR/CF MR” value at progesterone receptor is recorded as 40.27.

The values are drawn from US9034856B2, “17-(1′propenyl)-17-3′-oxidoestra-4-en-3-one derivative, use thereof, and medicament containing said derivative” (Bayer Intellectual Property GmbH, priority 2007, dated 2015).
